From ChEMBL document CHEMBL1201862, “PubChem BioAssay data set” (2004)
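Interpolation was linear, between the two tested concentrations surrounding the appropriate level; five concentrations were tested over 48 hours in 96-well plates. GI50 = concentration required for 50% inhibition of growth.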 Calls of active or inactive are those of the source. Cut-off read from the data, not from the text of the source: active = GI50 up to about 1.1 µM and inactive = higher.

How the values were obtained:
Assay in all cases: NCI tumour cell line growth inhibition, 48 h
NCI-H460 = test system: NCI-H460
NCI-H522 = test system: NCI-H522
COLO 205 = test system: COLO 205
MDA-MB-231 = test system: MDA-MB-231
M14 = test system: M14
SK-MEL-5 = test system: SK-MEL-5
UACC-62 = test system: UACC-62
SK-MEL-2 = test system: SK-MEL-2
CAKI-1 = test system: CAKI-1
MOLT-4 = test system: MOLT-4
SK-MEL-28 = test system: SK-MEL-28
MDA-N = test system: MDA-N
SNB-75 = test system: SNB-75
786-0 = test system: 786-0
PC-3 = test system: PC-3
HT-29 = test system: HT-29
BT-549 = test system: BT-549
HCT-15 = test system: HCT-15
SW-620 = test system: SW-620
OVCAR-8 = test system: OVCAR-8

CCCCCCCCCCCCCCCC[N+](C)(C)Cc1ccc(F)cc1
GI50 (NCI-H460): 1.44 µM (inactive)
GI50 (NCI-H522): 0.724 µM (active)
GI50 (COLO 205): 1.61 µM (inactive)
GI50 (MDA-MB-231): 1.32 µM (inactive)
GI50 (M14): 1.6 µM (inactive)
GI50 (SK-MEL-5): 1.75 µM (inactive)
GI50 (UACC-62): 1.67 µM (inactive)
GI50 (SK-MEL-2): 1.62 µM (inactive)
GI50 (CAKI-1): 2.7 µM (inactive)
GI50 (MOLT-4): 1.46 µM (inactive)
GI50 (SK-MEL-28): 3.08 µM (inactive)
GI50 (MDA-N): 1.96 µM (inactive)
GI50 (SNB-75): 1.39 µM (inactive)
GI50 (786-0): 1.47 µM (inactive)
GI50 (PC-3): 1.11 µM (active)
GI50 (HT-29): 1.26 µM (inactive)
GI50 (BT-549): 2.37 µM (inactive)
GI50 (HCT-15): 8.43 µM
GI50 (SW-620): 1.7 µM (inactive)
GI50 (OVCAR-8): 1.51 µM (inactive)

O=C1c2ccccc2-c2c1c1ccccc1c(=O)n2-c1ccccc1
GI50 (NCI-H460): 6.56 µM (inactive)
GI50 (NCI-H522): 18.2 µM (inactive)
GI50 (COLO 205): > 46.5 µM (inactive)
GI50 (MDA-MB-231): 9.66 µM (inactive)
GI50 (M14): 47.2 µM (inactive)
GI50 (SK-MEL-5): 9.66 µM (inactive)
GI50 (UACC-62): 11.1 µM (inactive)
GI50 (SK-MEL-2): 20.4 µM (inactive)
GI50 (CAKI-1): 11.8 µM (inactive)
GI50 (MOLT-4): > 100 µM (inactive)
GI50 (SK-MEL-28): > 100 µM (inactive)
GI50 (MDA-N): > 79.1 µM (inactive)
GI50 (SNB-75): 13.1 µM (inactive)
GI50 (786-0): 3.07 µM (inactive)
GI50 (PC-3): > 81.5 µM (inactive)
GI50 (HT-29): > 31.5 µM (inactive)
GI50 (BT-549): 14.4 µM (inactive)
GI50 (HCT-15): 27.9 µM
GI50 (SW-620): 35.4 µM (inactive)
GI50 (OVCAR-8): 5.79 µM (inactive)

C=CCCC(=O)CC(O)(C(F)(F)F)C(F)(F)F
GI50 (NCI-H460): > 100 µM (inactive)
GI50 (NCI-H522): > 100 µM (inactive)
GI50 (COLO 205): > 100 µM (inactive)
GI50 (MDA-MB-231): > 100 µM (inactive)
GI50 (M14): > 100 µM (inactive)
GI50 (SK-MEL-5): > 100 µM (inactive)
GI50 (UACC-62): > 100 µM (inactive)
GI50 (SK-MEL-2): > 100 µM (inactive)
GI50 (CAKI-1): > 100 µM (inactive)
GI50 (MOLT-4): > 100 µM (inactive)
GI50 (SK-MEL-28): > 100 µM (inactive)
GI50 (MDA-N): > 100 µM (inactive)
GI50 (SNB-75): > 100 µM (inactive)
GI50 (786-0): > 100 µM (inactive)
GI50 (PC-3): > 100 µM (inactive)
GI50 (HT-29): > 100 µM (inactive)
GI50 (BT-549): > 100 µM (inactive)
GI50 (HCT-15): > 100 µM
GI50 (SW-620): > 100 µM (inactive)
GI50 (OVCAR-8): > 100 µM (inactive)

N#Cc1ccc(OCc2nc3cc(C(F)(F)F)ccc3nc2-c2ccccc2)cc1
GI50 (NCI-H460): > 100 µM (inactive)
GI50 (NCI-H522): 7.62 µM (inactive)
GI50 (COLO 205): > 100 µM (inactive)
GI50 (MDA-MB-231): 51.1 µM (inactive)
GI50 (M14): > 100 µM (inactive)
GI50 (SK-MEL-5): > 100 µM (inactive)
GI50 (UACC-62): > 100 µM (inactive)
GI50 (SK-MEL-2): > 100 µM (inactive)
GI50 (CAKI-1): > 100 µM (inactive)
GI50 (MOLT-4): 62.1 µM (inactive)
GI50 (SK-MEL-28): > 100 µM (inactive)
GI50 (MDA-N): > 100 µM (inactive)
GI50 (SNB-75): > 100 µM (inactive)
GI50 (786-0): > 100 µM (inactive)
GI50 (PC-3): > 100 µM (inactive)
GI50 (HT-29): 7.93 µM (inactive)
GI50 (BT-549): > 100 µM (inactive)
GI50 (HCT-15): > 10 µM
GI50 (SW-620): > 100 µM (inactive)
GI50 (OVCAR-8): > 100 µM (inactive)

O=S(=O)(NNc1ccccc1)c1ccccc1
GI50 (NCI-H460): 3.96 µM (inactive)
GI50 (NCI-H522): 8.95 µM (inactive)
GI50 (COLO 205): 8.99 µM (inactive)
GI50 (MDA-MB-231): 1.36 µM (inactive)
GI50 (M14): 0.671 µM (active)
GI50 (SK-MEL-5): 2.1 µM (inactive)
GI50 (UACC-62): 0.481 µM (active)
GI50 (SK-MEL-2): 3.26 µM (inactive)
GI50 (CAKI-1): 1.28 µM (inactive)
GI50 (MOLT-4): 26.5 µM (inactive)
GI50 (SK-MEL-28): 48.2 µM (inactive)
GI50 (MDA-N): 12.2 µM (inactive)
GI50 (SNB-75): 40 µM (inactive)
GI50 (786-0): 52.6 µM (inactive)
GI50 (PC-3): 8.15 µM (inactive)
GI50 (HT-29): 11.5 µM (inactive)
GI50 (BT-549): 19.2 µM (inactive)
GI50 (HCT-15): 11.5 µM
GI50 (SW-620): 26.3 µM (inactive)
GI50 (OVCAR-8): 28.5 µM (inactive)

O=C(/C=C\c1ccc([N+](=O)[O-])cc1)c1ccccc(=O)c1O
GI50 (NCI-H460): 0.518 µM (active)
GI50 (NCI-H522): 1.39 µM (inactive)
GI50 (COLO 205): 0.397 µM (active)
GI50 (MDA-MB-231): 3.37 µM (inactive)
GI50 (M14): 1.29 µM (inactive)
GI50 (SK-MEL-5): 0.558 µM (active)
GI50 (UACC-62): 1.14 µM (inactive)
GI50 (SK-MEL-2): 1.89 µM (inactive)
GI50 (CAKI-1): 1.32 µM (inactive)
GI50 (MOLT-4): 0.721 µM (active)
GI50 (SK-MEL-28): 1.41 µM (inactive)
GI50 (MDA-N): 2.37 µM (inactive)
GI50 (SNB-75): 1.29 µM (inactive)
GI50 (786-0): 0.769 µM (active)
GI50 (PC-3): 1.95 µM (inactive)
GI50 (HT-29): 1.04 µM (active)
GI50 (BT-549): 1.72 µM (inactive)
GI50 (HCT-15): 0.169 µM
GI50 (SW-620): 1.3 µM (inactive)
GI50 (OVCAR-8): 0.9 µM (active)

C[C@@H]1OC(=O)C[C@H]2CC(=O)N(CCC3CN(C(=O)c4ccccc4)c4ccccc43)C[C@@H]21 (stereo not given in full)
GI50 (NCI-H460): > 100 µM (inactive)
GI50 (NCI-H522): > 100 µM (inactive)
GI50 (COLO 205): > 100 µM (inactive)
GI50 (MDA-MB-231): > 100 µM (inactive)
GI50 (M14): > 100 µM (inactive)
GI50 (SK-MEL-5): > 100 µM (inactive)
GI50 (UACC-62): > 100 µM (inactive)
GI50 (SK-MEL-2): > 100 µM (inactive)
GI50 (CAKI-1): > 100 µM (inactive)
GI50 (MOLT-4): > 100 µM (inactive)
GI50 (SK-MEL-28): > 100 µM (inactive)
GI50 (MDA-N): > 100 µM (inactive)
GI50 (SNB-75): > 100 µM (inactive)
GI50 (786-0): > 100 µM (inactive)
GI50 (PC-3): > 100 µM (inactive)
GI50 (HT-29): > 100 µM (inactive)
GI50 (BT-549): > 100 µM (inactive)
GI50 (HCT-15): > 100 µM
GI50 (SW-620): > 100 µM (inactive)
GI50 (OVCAR-8): > 100 µM (inactive)
